Laboratory results from PubChem BioAssay AID1259407 (Chemical Carcinogenesis Research Information System (CCRIS), 2018).
The source made the active and inactive calls. No rule for the calls is given here.

System: CCRIS mutagenicity, Ames/micronucleus/aberration tests
Assay: CCRIS mutagenicity studies
[1] = Test System: AMES SALMONELLA TYPHIMURIUM, Strain/Indicator: TA98, Metabolic Activation: NONE, Method: PREINCUBATION
[2] = Test System: AMES SALMONELLA TYPHIMURIUM, Strain/Indicator: TA100, Metabolic Activation: NONE, Method: PREINCUBATION
[3] = Test System: AMES SALMONELLA TYPHIMURIUM, Strain/Indicator: TA1535, Metabolic Activation: NONE, Method: PREINCUBATION

Measured: mutagenic call

Cc1cccc(C#N)c1
inactive: Test System: AMES SALMONELLA TYPHIMURIUM, Strain/Indicator: TA97, Metabolic Activation: HAMSTER, LIVER, S-9, AROCLOR 1254 (10%), Method: PREINCUBATION inactive; negative | Test System: AMES SALMONELLA TYPHIMURIUM, Strain/Indicator: TA97, Metabolic Activation: HAMSTER, LIVER, S-9, AROCLOR 1254 (30%), Method: PREINCUBATION inactive; negative | Test System: AMES SALMONELLA TYPHIMURIUM, Strain/Indicator: TA97, Metabolic Activation: NONE, Method: PREINCUBATION inactive; negative | Test System: AMES SALMONELLA TYPHIMURIUM, Strain/Indicator: TA97, Metabolic Activation: RAT, LIVER, S-9, AROCLOR 1254 (10%), Method: PREINCUBATION inactive; negative | Test System: AMES SALMONELLA TYPHIMURIUM, Strain/Indicator: TA97, Metabolic Activation: RAT, LIVER, S-9, AROCLOR 1254 (30%), Method: PREINCUBATION inactive; negative | Test System: AMES SALMONELLA TYPHIMURIUM, Strain/Indicator: TA98, Metabolic Activation: HAMSTER, LIVER, S-9, AROCLOR 1254 (10%), Method: PREINCUBATION inactive; negative | Test System: AMES SALMONELLA TYPHIMURIUM, Strain/Indicator: TA98, Metabolic Activation: HAMSTER, LIVER, S-9, AROCLOR 1254 (30%), Method: PREINCUBATION inactive; negative | [1] inactive; negative | Test System: AMES SALMONELLA TYPHIMURIUM, Strain/Indicator: TA98, Metabolic Activation: RAT, LIVER, S-9, AROCLOR 1254 (10%), Method: PREINCUBATION inactive; negative | Test System: AMES SALMONELLA TYPHIMURIUM, Strain/Indicator: TA98, Metabolic Activation: RAT, LIVER, S-9, AROCLOR 1254 (30%), Method: PREINCUBATION inactive; negative | Test System: AMES SALMONELLA TYPHIMURIUM, Strain/Indicator: TA100, Metabolic Activation: HAMSTER, LIVER, S-9, AROCLOR 1254 (10%), Method: PREINCUBATION inactive; negative | Test System: AMES SALMONELLA TYPHIMURIUM, Strain/Indicator: TA100, Metabolic Activation: HAMSTER, LIVER, S-9, AROCLOR 1254 (30%), Method: PREINCUBATION inactive; negative | [2] inactive; negative | Test System: AMES SALMONELLA TYPHIMURIUM, Strain/Indicator: TA100, Metabolic Activation: RAT, LIVER, S-9, AROCLOR 1254 (10%), Method: PREINCUBATION inactive; negative | Test System: AMES SALMONELLA TYPHIMURIUM, Strain/Indicator: TA100, Metabolic Activation: RAT, LIVER, S-9, AROCLOR 1254 (30%), Method: PREINCUBATION inactive; negative | Test System: AMES SALMONELLA TYPHIMURIUM, Strain/Indicator: TA1535, Metabolic Activation: HAMSTER, LIVER, S-9, AROCLOR 1254 (10%), Method: PREINCUBATION inactive; negative | Test System: AMES SALMONELLA TYPHIMURIUM, Strain/Indicator: TA1535, Metabolic Activation: HAMSTER, LIVER, S-9, AROCLOR 1254 (30%), Method: PREINCUBATION inactive; negative | [3] inactive; negative | Test System: AMES SALMONELLA TYPHIMURIUM, Strain/Indicator: TA1535, Metabolic Activation: RAT, LIVER, S-9, AROCLOR 1254 (10%), Method: PREINCUBATION inactive; negative | Test System: AMES SALMONELLA TYPHIMURIUM, Strain/Indicator: TA1535, Metabolic Activation: RAT, LIVER, S-9, AROCLOR 1254 (30%), Method: PREINCUBATION inactive; negative

C[C@H]1COc2c(N3CCN(C)CC3)c(F)cc3c(=O)c(C(=O)O)cn1c23
inactive: [1] inactive; negative | Test System: AMES SALMONELLA TYPHIMURIUM, Strain/Indicator: TA98, Metabolic Activation: RAT, LIVER, S-9, PHENOBARBITAL AND BETA-NAPHTHOFLAVONE, Method: PREINCUBATION inactive; negative | [2] inactive; negative | Test System: AMES SALMONELLA TYPHIMURIUM, Strain/Indicator: TA100, Metabolic Activation: RAT, LIVER, S-9, PHENOBARBITAL AND BETA-NAPHTHOFLAVONE, Method: PREINCUBATION inactive; negative | [3] inactive; negative | Test System: AMES SALMONELLA TYPHIMURIUM, Strain/Indicator: TA1535, Metabolic Activation: RAT, LIVER, S-9, PHENOBARBITAL AND BETA-NAPHTHOFLAVONE, Method: PREINCUBATION inactive; negative | Test System: AMES SALMONELLA TYPHIMURIUM, Strain/Indicator: TA1537, Metabolic Activation: NONE, Method: PREINCUBATION inactive; negative | Test System: AMES SALMONELLA TYPHIMURIUM, Strain/Indicator: TA1537, Metabolic Activation: RAT, LIVER, S-9, PHENOBARBITAL AND BETA-NAPHTHOFLAVONE, Method: PREINCUBATION inactive; negative | Test System: CHINESE HAMSTER OVARY, Strain/Indicator: CHO-K1 (HGPRT)/6-THIOGUANINE, Metabolic Activation: NONE inactive; negative | Test System: CHINESE HAMSTER OVARY, Strain/Indicator: CHO-K1 (HGPRT)/6-THIOGUANINE, Metabolic Activation: RAT, LIVER, S-9, PHENOBARBITAL AND BETA-NAPHTHOFLAVONE inactive; negative | Test System: E.COLI, Strain/Indicator: WP2 UVRA, Metabolic Activation: NONE, Method: PREINCUBATION inactive; negative | Test System: E.COLI, Strain/Indicator: WP2 UVRA, Metabolic Activation: RAT, LIVER, S-9, PHENOBARBITAL AND BETA-NAPHTHOFLAVONE, Method: PREINCUBATION inactive; negative | Test System: UDS RAT HEPATOCYTES, Strain/Indicator: THY INCORP, Metabolic Activation: NONE, Method: IN VIVO-IN VITRO inactive; negative
